Laboratory results reported in patent US20260041620A1, “NOVEL AMINO ACID BASED SALTS, COMPOSITIONS AND METHODS FOR TREATING SKIN AND IMPROVING SKIN REJUVENATION AND LONGEVITY” (Sytheon Ltd, priority 2023, published 2026).
Where two headings read alike, the source gives them in different places.

Columns and labels:
HDAC2 = HDAC2 (Homo sapiens, UniProt Q92769)
Procedure: (§1) Test materials were stored at room temperature and stock solutions were prepared at 20 mg/ml in DMSO. Further dilutions were made in sterile distilled water immediately before being added to the reaction mixture containing a substrate, and the reaction was triggered by the addition of purified HDAC enzymes, Double distilled water was the negative control and trichostatin (1.5 ug/ml) was used as a positive control for validation of each study. The test procedure was as directed in the assay kits. The products of the reactions were measured by fluorometry at ex/em 350/450 nm using multi-well plate fluorometer Cytofluor 4000 (Applied Biosystem, Foster City, CA) or using SpectraMax i3× Multi-Mode Detection Platform from Molecular Devices (Sunnyvale, CA).
(§2) Statistical significance was assessed with a two-tail Student test. Deviations of ≤20% as compared to water control with p values below 0.05 were considered statistically significant.

HDAC10 = biological target: T1, HDAC10 (Homo sapiens, UniProt Q969S8)
T1 sequence (Q969S8 1-669): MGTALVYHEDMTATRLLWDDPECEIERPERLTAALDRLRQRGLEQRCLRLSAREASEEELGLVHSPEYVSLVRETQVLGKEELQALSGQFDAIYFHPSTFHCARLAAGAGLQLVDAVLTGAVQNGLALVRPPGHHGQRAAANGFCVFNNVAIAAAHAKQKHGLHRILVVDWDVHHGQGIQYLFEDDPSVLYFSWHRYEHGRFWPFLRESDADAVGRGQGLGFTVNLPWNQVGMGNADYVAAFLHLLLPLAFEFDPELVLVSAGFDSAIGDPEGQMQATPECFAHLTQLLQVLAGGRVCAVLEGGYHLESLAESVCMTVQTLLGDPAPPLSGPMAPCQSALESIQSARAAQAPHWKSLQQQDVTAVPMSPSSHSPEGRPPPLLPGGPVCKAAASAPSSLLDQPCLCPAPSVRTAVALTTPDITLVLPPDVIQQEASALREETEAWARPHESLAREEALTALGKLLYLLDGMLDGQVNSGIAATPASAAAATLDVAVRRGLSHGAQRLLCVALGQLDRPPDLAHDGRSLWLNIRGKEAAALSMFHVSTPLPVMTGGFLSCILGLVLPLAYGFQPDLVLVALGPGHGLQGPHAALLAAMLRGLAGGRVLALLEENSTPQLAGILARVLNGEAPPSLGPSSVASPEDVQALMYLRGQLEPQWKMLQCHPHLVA
Procedure: as §1, §2

HDAC 8 = biological target: T2, HDAC 8 (Homo sapiens, UniProt Q9BY41)
T2 sequence (Q9BY41 1-377): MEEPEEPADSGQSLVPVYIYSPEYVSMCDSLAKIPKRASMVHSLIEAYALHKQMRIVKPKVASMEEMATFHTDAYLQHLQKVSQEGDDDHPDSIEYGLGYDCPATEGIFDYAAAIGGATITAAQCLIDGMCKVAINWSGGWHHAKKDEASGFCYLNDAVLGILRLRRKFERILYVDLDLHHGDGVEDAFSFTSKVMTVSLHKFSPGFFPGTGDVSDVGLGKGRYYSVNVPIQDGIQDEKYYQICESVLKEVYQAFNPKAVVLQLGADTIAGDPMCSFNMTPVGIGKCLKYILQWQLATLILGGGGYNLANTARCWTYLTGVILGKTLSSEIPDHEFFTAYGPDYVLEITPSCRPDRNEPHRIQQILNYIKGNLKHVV
Procedure: as §1, §2

HDAC7 = biological target: T3, HDAC7 (Homo sapiens, UniProt Q8WUI4)
T3 sequence (Q8WUI4 1-952): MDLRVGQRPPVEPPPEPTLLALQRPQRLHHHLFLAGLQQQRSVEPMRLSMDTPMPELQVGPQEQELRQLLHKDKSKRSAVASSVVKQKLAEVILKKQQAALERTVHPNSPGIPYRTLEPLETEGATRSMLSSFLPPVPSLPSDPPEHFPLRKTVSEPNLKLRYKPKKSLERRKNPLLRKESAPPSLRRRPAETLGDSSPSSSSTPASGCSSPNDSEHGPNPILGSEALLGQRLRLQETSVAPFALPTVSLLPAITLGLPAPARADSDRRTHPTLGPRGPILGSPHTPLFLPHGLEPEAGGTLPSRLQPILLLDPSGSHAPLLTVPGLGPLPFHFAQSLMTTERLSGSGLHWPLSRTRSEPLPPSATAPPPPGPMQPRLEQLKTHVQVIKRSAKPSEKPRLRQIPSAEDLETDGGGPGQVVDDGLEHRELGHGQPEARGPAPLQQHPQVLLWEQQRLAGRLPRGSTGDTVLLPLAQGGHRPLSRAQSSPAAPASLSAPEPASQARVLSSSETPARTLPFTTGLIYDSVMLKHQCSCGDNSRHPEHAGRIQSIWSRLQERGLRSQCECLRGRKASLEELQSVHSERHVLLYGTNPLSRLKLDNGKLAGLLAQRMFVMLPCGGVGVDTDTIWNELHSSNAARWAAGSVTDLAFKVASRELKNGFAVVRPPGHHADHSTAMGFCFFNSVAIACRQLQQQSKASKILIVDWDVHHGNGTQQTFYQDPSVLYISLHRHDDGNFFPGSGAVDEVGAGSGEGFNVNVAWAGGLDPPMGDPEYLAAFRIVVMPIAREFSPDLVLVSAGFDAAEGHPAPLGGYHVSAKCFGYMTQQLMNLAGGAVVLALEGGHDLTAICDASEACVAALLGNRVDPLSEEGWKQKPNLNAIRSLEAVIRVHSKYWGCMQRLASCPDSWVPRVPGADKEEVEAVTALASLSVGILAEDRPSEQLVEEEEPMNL
Procedure: as §1, §2

FABP-3 = biological target: T4, FABP-3 (Homo sapiens, UniProt P05413); assay: FABP-3 ELISA inhibitory assay; format: biochemical
T4 construct: purchased Neovateinbio PT-452

FABP-5 = biological target: T5, FABP-5 (Homo sapiens, UniProt Q01469); assay: FABP-5 ELISA inhibitory assay; format: biochemical
T5 construct: purchased Raybiotech 268-10276-1

HDAC 4 = HDAC 4 (Homo sapiens, UniProt P56524); assay: HDAC 4 fluorogenic assay kit
Sequence of HDAC 4 (P56524 whole entry): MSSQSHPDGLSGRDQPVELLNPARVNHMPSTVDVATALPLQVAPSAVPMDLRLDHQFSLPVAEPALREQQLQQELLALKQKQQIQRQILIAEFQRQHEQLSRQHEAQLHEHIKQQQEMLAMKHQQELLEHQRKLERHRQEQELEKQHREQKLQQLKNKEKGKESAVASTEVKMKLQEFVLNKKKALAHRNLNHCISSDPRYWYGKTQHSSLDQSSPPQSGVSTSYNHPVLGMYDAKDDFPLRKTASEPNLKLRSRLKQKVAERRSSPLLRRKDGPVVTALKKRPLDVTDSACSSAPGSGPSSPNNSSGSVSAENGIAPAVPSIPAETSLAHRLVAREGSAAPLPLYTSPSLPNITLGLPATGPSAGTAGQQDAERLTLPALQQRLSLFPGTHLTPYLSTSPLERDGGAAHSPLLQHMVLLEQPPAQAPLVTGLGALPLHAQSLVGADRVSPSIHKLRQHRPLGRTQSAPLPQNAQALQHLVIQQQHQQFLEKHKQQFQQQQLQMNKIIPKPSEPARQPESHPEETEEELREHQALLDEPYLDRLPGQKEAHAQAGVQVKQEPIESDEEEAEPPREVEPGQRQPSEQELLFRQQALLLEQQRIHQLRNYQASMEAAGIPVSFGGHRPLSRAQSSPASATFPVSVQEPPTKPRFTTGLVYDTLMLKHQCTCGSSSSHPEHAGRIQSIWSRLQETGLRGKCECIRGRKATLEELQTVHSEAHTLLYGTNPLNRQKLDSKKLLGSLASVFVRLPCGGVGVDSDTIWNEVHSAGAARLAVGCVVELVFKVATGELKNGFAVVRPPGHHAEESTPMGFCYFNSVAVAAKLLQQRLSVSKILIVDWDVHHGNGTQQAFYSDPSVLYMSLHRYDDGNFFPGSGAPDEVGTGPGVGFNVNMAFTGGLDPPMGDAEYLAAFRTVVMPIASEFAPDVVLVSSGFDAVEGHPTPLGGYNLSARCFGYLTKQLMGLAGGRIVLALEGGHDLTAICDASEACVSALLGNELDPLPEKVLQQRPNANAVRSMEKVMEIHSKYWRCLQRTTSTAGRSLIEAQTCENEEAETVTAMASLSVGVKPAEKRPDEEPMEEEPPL
Procedure: as §1, §2

T4 sequence (P05413 whole entry): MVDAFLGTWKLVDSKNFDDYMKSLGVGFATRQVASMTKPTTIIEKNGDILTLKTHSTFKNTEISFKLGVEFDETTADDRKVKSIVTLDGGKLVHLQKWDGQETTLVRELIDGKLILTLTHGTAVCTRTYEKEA
T5 sequence (Q01469 whole entry): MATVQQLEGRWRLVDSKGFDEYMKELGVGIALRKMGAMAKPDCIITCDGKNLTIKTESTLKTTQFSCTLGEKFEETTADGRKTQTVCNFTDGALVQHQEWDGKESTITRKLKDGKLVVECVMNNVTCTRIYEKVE
Sequence of HDAC2 (Q92769 whole entry): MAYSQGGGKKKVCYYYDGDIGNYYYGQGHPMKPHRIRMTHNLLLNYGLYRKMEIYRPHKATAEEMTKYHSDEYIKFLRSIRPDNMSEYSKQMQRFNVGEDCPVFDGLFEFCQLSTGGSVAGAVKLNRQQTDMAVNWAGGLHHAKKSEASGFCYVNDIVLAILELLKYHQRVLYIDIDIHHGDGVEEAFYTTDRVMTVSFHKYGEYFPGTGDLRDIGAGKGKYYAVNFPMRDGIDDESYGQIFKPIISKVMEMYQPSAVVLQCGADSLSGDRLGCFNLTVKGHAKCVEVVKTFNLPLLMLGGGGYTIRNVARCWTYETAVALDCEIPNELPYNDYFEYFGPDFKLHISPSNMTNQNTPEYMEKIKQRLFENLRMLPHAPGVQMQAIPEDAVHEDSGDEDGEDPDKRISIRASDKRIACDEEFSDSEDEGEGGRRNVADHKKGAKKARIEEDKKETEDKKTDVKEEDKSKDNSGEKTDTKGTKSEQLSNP

| SMILES | HDAC 2 activity, % of water-treated controls (HDAC2; 25 ug/ml) | HDAC 2 activity, % of water-treated controls (HDAC2; 50 ug/ml) | HDAC 2 activity, % of water-treated controls (HDAC2; 100 ug/ml) | HDAC 2 activity, % of water-treated controls (HDAC2; 200 ug/ml) | HDAC 10 activity, % of water-treated controls (HDAC10; 5 ug/ml) | HDAC 10 activity, % of water-treated controls (HDAC10; 25 ug/ml) | HDAC 10 activity, % of water-treated controls (HDAC10; 50 ug/ml) | HDAC 10 activity, % of water-treated controls (HDAC10; 100 ug/ml) | HDAC 10 activity, % of water-treated controls (HDAC10; 200 ug/ml) | HDAC 8 activity, % of water-treated controls (HDAC 8; 5 ug/ml) | HDAC 8 activity, % of water-treated controls (HDAC 8; 25 ug/ml) | HDAC 8 activity, % of water-treated controls (HDAC 8; 50 ug/ml) | HDAC 8 activity, % of water-treated controls (HDAC 8; 100 ug/ml) | HDAC 8 activity, % of water-treated controls (HDAC 8; 200 ug/ml) | HDAC 7 activity, % of water-treated controls (HDAC7; 25 ug/ml) | HDAC 7 activity, % of water-treated controls (HDAC7; 50 ug/ml) | HDAC 7 activity, % of water-treated controls (HDAC7; 100 ug/ml) | HDAC 7 activity, % of water-treated controls (HDAC7; 200 ug/ml) | FABP-3 IC50 (FABP-3) | FABP-5 IC50 (FABP-5) | other results |
| --- | --- | --- | --- | --- | --- | --- | --- | --- | --- | --- | --- | --- | --- | --- | --- | --- | --- | --- | --- | --- | --- |
| CCCC(=O)NCCCC[C@H](NC(=O)CCC)C(=O)[O-].CCCC(=O)NCCCC[C@H](NC(=O)CCC)C(=O)[O-].[Zn+2] [Zn di-(di-n-butyryl lysinate), Zinc di-(di-n-butyryl lysinate)] | 20% | 20% | 17% | 15% | 21% | 15% | 13% | 9% | 7% | 15% | 15% | 15% | 13% | 17% | 28% | 15% | 9% | 9% | 242.4 µg/mL | 644 µg/mL | HDAC 7 activity, % of water-treated controls (HDAC7; 5 ug/ml): 56%; HDAC 4 activity, % of water-treated controls (HDAC 4; 25 ug/ml): 120%; HDAC 4 activity, % of water-treated controls (HDAC 4; 50 ug/ml): 60%; HDAC 4 activity, % of water-treated controls (HDAC 4; 100 ug/ml): 39% |
| CCCC(=O)NCCCCC(NC(=O)CCC)C(=O)[O-].CCCC(=O)NCCCCC(NC(=O)CCC)C(=O)[O-].[Ca+2] (centres unmarked) [Ca di-(di-n-butyryl lysinate), calcium di-(di-n-butyryl lysinate)] | 96% | 90% | 97% | 94% |  | 105% | 103% | 104% | 90% | 91% | 148% | 174% | 155% | 111% | 101% | 99% | 99% | 97% | 188.6 µg/mL | 786 µg/mL |  |
| CCCC(=O)N[C@@H](CC(C)C)C(=O)[O-].CCCC(=O)N[C@@H](CC(C)C)C(=O)[O-].[Zn+2] [Zn di-(n-butyryl leucinate), Zinc di-(n-butyryl leucinate)] | 39% | 37% | 31% | 28% | 21% | 13% | 10% | 8% | 6% | 7% | 16% | 16% | 16% | 14% | 18% | 11% | 9% | 9% | 630.9 µg/mL | 390.5 µg/mL | HDAC 7 activity, % of water-treated controls (HDAC7; 5 ug/ml): 41% |
| CCCC(=O)[O-].[Na+] [Sodium butyrate, reference compound] |  | 89% | 93% | 94% |  |  | 100% | 103% | 93% |  |  | 25% | 20% | 20% |  | 96% | 94% | 87% |  |  | HDAC 2 activity, % of water-treated controls (HDAC2; 400 ug/ml): 95%; HDAC 10 activity, % of water-treated controls (HDAC10; 400 ug/ml): 61%; HDAC 8 activity, % of water-treated controls (HDAC 8; 400 ug/ml): 14%; HDAC 7 activity, % of water-treated controls (HDAC7; 400 ug/ml): 91%; HDAC 4 activity, % of water-treated controls (HDAC 4; 25 ug/ml): 93%; HDAC 4 activity, % of water-treated controls (HDAC 4; 50 ug/ml): 96%; HDAC 4 activity, % of water-treated controls (HDAC 4; 100 ug/ml): 96% |
